Laboratory results published in patent publication US12655116B2, “Substituted isophthalic acid diamides” (Bayer Aktiengesellschaft, priority 2020, dated 2026).

What was measured:
SETVI [1] = assay: Pre-emergence herbicidal action against SETVI; type: in vivo, Setaria viridis
Method in brief: (§1)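 Visual rating at 3 weeks vs untreated pots; 0–100% scale, 100% = plants died. Treatment: aqueous WP/EC spray onto covering soil, 600–800 l/ha, 0.2% wetter, seeds in sandy loam.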

ALOMY [2] = assay: Pre-emergence herbicidal action against ALOMY; type: in vivo, Alopecurus myosuroides; conditions: Alopecurus myosuroides, 504 h, pre-emergence
Method in brief: as §1

VERPE = assay: Post-emergence herbicidal action against VERPE; type: in vivo, Veronica persica; conditions: 20 g/ha
Method in brief: (§2)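 Weeds in sandy loam soil received a post-emergence spray at the one-leaf stage. Compounds were applied as WP or EC in water, 600 to 800 l/ha, with 0.2% wetting agent. Activity in % was judged visually after roughly 3 weeks against untreated plants.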

STEME [3] = assay: Pre-emergence herbicidal action against STEME; type: in vivo, Stellaria media
Method in brief: as §1

SETVI [4] = assay: Post-emergence herbicidal action against SETVI; type: in vivo, Setaria viridis
Method in brief: as §2

MATIN [5] = assay: Pre-emergence herbicidal action against MATIN; type: in vivo, Matricaria inodora
Method in brief: as §1

AVEFA [6] = assay: Post-emergence herbicidal action against AVEFA; type: in vivo, Avena fatua; conditions: Avena fatua, 504 h, visual assessment about 3 weeks after treatment, 100% = plants have died, 0% = like control plants
Method in brief: as §2

PHBPU [7] = assay: Post-emergence herbicidal action against PHBPU; type: in vivo, Pharbitis purpurea
Method in brief: as §2

ABUTH [8] = assay: Pre-emergence herbicidal action against ABUTH; type: in vivo, Abutilon theophrasti
Method in brief: as §1

AMARE [9] = assay: Pre-emergence herbicidal action against AMARE; type: in vivo, Amaranthus retroflexus
Method in brief: as §1

ECHCG [10] = assay: Pre-emergence herbicidal action against ECHCG; type: in vivo, Echinochloa crus-galli
Method in brief: as §1

AMARE [11] = assay: Post-emergence herbicidal action against AMARE; type: in vivo, Amaranthus retroflexus; conditions: 20 g/ha, visual assessment about 3 weeks after treatment, 100% = plants have died, 0% = like control plants
Method in brief: as §2

VIOTR [12] = assay: Pre-emergence herbicidal action against VIOTR; type: in vivo, Viola tricolor
Method in brief: as §1

ECHCG [13] = assay: Post-emergence herbicidal action against ECHCG; type: in vivo, Echinochloa crus-galli
Method in brief: as §2

STEME [14] = assay: Post-emergence herbicidal action against STEME; type: in vivo, Stellaria media
Method in brief: as §2

ABUTH [15] = assay: Post-emergence herbicidal action against ABUTH; type: in vivo, Abutilon theophrasti; conditions: visual assessment about 3 weeks after treatment vs untreated controls
Method in brief: as §2

HORMU [16] = assay: Pre-emergence herbicidal action against HORMU; type: in vivo, Hordeum murinum; conditions: Hordeum murinum, 504 h; 80 g/ha, pre-emergence
Method in brief: as §1

POLCO = assay: Pre-emergence herbicidal action against POLCO; type: in vivo, Polygonum convolvulus; conditions: Fallopia convolvulus, 504 h, dosage 80 g/ha
Method in brief: as §1

DIGSA [17] = assay: Pre-emergence herbicidal action against DIGSA; type: in vivo, Digitaria sanguinalis
Method in brief: as §1

ALOMY [18] = assay: Post-emergence herbicidal action against ALOMY; type: in vivo, Alopecurus myosuroides; conditions: dosage 20 g/ha, visual assessment about 3 weeks after treatment vs untreated controls
Method in brief: as §2

AVEFA [19] = assay: Pre-emergence herbicidal action against AVEFA; type: in vivo, Avena fatua; conditions: 80 g/ha, pre-emergence
Method in brief: as §1

LOLRI = assay: Pre-emergence herbicidal action against LOLRI; type: in vivo, Lolium rigidum; conditions: Lolium rigidum, 504 h, 80 g/ha
Method in brief: as §1

DIGSA [20] = assay: Post-emergence herbicidal action against DIGSA; type: in vivo, Digitaria sanguinalis
Method in brief: as §2

VIOTR [21] = assay: Post-emergence herbicidal action against VIOTR; type: in vivo, Viola tricolor
Method in brief: as §2

MATIN [22] = assay: Post-emergence herbicidal action against MATIN; type: in vivo, Matricaria inodora; conditions: Tripleurospermum inodorum, 504 h, dosage 20 g/ha
Method in brief: as §2

HORMU [23] = assay: Post-emergence herbicidal action against HORMU; type: in vivo, Hordeum murinum; conditions: dosage 20 g/ha
Method: Seeds of monocotyledonous and dicotyledonous weed and crop plants are laid out in sandy loam soil in wood-fiber pots, covered with soil and cultivated in a greenhouse under good growth conditions. 2 to 3 weeks after sowing, the test plants are treated at the one-leaf stage. The compounds of the invention, formulated in the form of wettable powders (WP) or as emulsion concentrates (EC), are then sprayed onto the green parts of the plants in the form of an aqueous suspension or emulsion at a water application rate equivalent to 600 to 800 l/ha, with addition of 0.2% wetting agent. After the test plants have been left to stand in the greenhouse under optimal growth conditions for about 3 weeks, the action of the preparations is assessed visually in comparison to untreated controls (herbicidal action in percent (%): 100% activity=the plants have died, 0% activity=like control plants). […] The tables below illustrate, in an illustrative manner, the post-emergence herbicidal action of the compounds of the invention, the herbicidal activity being stated in percent.

PHBPU [24] = assay: Pre-emergence herbicidal action against PHBPU; type: in vivo, Pharbitis purpurea; conditions: dosage 80 g/ha
Method in brief: as §1

[25] = Setaria viridis, 504 h, dosage 20 g/ha
[26] = 80 g/ha, scored visually after 3 weeks vs untreated controls (100% = plants have died, 0% = like control plants)

CCNC(=O)c1c(C(F)(F)F)ccc(C(=O)Nc2nnnn2CC)c1Br [Example 2-208]
80%: pest or weed control at 20 g/ha (SETVI [1]; [25]) | pest or weed control at 20 g/ha (ALOMY [2]; 20 g/ha, scored visually after 3 weeks, 100% = plants have died, 0% = like control plants) | pest or weed control at 20 g/ha (VERPE; Veronica persica, 504 h) | pest or weed control at 5 g/ha (SETVI [4]; Setaria viridis, 504 h, dosage 5 g/ha) | pest or weed control at 20 g/ha (SETVI [4]; [25]) | pest or weed control at 5 g/ha (AVEFA [6]; 5 g/ha) | pest or weed control at 5 g/ha (PHBPU [7]; Ipomoea purpurea, 504 h, dosage 5 g/ha) | pest or weed control at 20 g/ha (PHBPU [7]; Ipomoea purpurea, 504 h, dosage 20 g/ha) | pest or weed control at 20 g/ha (ECHCG [13]; Echinochloa crus-galli, 504 h, dosage 20 g/ha) | pest or weed control at 5 g/ha (STEME [14]; Stellaria media, 504 h, dosage 5 g/ha) | pest or weed control at 20 g/ha (ALOMY [18]; Alopecurus myosuroides, 504 h) | pest or weed control at 80 g/ha (LOLRI) | pest or weed control at 5 g/ha (DIGSA [20]; Digitaria sanguinalis, 504 h, 5 g/ha) | pest or weed control at 20 g/ha (MATIN [22])
100%: pest or weed control at 80 g/ha (SETVI [1]; Setaria viridis, 504 h, dosage 80 g/ha) | pest or weed control at 20 g/ha (STEME [3]; Stellaria media, 504 h, dosage 20 g/ha) | pest or weed control at 80 g/ha (STEME [3]; Stellaria media, 504 h, dosage 80 g/ha) | pest or weed control at 20 g/ha (MATIN [5]; Tripleurospermum inodorum, 504 h, dosage 20 g/ha) | pest or weed control at 80 g/ha (MATIN [5]; Tripleurospermum inodorum, 504 h, dosage 80 g/ha) | pest or weed control at 80 g/ha (ABUTH [8]; Abutilon theophrasti, 504 h, 80 g/ha, scored visually after 3 weeks vs untreated controls (100% = plants have died, 0% = like control plants)) | pest or weed control at 20 g/ha (ABUTH [8]; Abutilon theophrasti, 504 h, dosage 20 g/ha, scored visually after 3 weeks vs untreated controls, 100% = plants have died, 0% = like control plants, read-out: Pre-emergence action against ABUTH (herbicidal activity in percent)) | pest or weed control at 20 g/ha (AMARE [9]; Amaranthus retroflexus, 504 h, 20 g/ha, scored visually after 3 weeks vs untreated controls, 100% = plants have died, 0% = like control plants) | pest or weed control at 80 g/ha (AMARE [9]; Amaranthus retroflexus, 504 h, 80 g/ha, scored visually after 3 weeks vs untreated controls, 100% = plants have died, 0% = like control plants) | pest or weed control at 80 g/ha (ECHCG [10]; Echinochloa crus-galli, 504 h, 80 g/ha) | pest or weed control at 20 g/ha (AMARE [11]; Amaranthus retroflexus, 504 h) | pest or weed control at 20 g/ha (VIOTR [12]; Viola tricolor, 504 h, dosage 20 g/ha) | pest or weed control at 80 g/ha (VIOTR [12]; Viola tricolor, 504 h, dosage 80 g/ha) | pest or weed control at 20 g/ha (STEME [14]; Stellaria media, 504 h, 20 g/ha) | pest or weed control at 80 g/ha (DIGSA [17]; Digitaria sanguinalis, 504 h, dosage 80 g/ha) | pest or weed control at 80 g/ha (AVEFA [19]; Avena fatua, 504 h) | pest or weed control at 5 g/ha (VIOTR [21]; Viola tricolor, 504 h, 5 g/ha) | pest or weed control at 20 g/ha (VIOTR [21]; Viola tricolor, 504 h, 20 g/ha)
90%: pest or weed control at 80 g/ha (ALOMY [2]; [26]) | pest or weed control at 20 g/ha (AVEFA [6]; 20 g/ha) | pest or weed control at 5 g/ha (ABUTH [15]; Abutilon theophrasti, 504 h, dosage 5 g/ha) | pest or weed control at 20 g/ha (ABUTH [15]; Abutilon theophrasti, 504 h, dosage 20 g/ha) | pest or weed control at 80 g/ha (HORMU [16]) | pest or weed control at 80 g/ha (POLCO) | pest or weed control at 20 g/ha (DIGSA [17]; Digitaria sanguinalis, 504 h, dosage 20 g/ha) | pest or weed control at 20 g/ha (DIGSA [20]; Digitaria sanguinalis, 504 h, 20 g/ha)

CCNC(=O)c1c(C(F)(F)F)ccc(C(=O)Nc2nnco2)c1SC [Example 5-59]
90%: Pre-emergence action against STEME in % (STEME [3]; dosage 20 g/ha) | Post-emergence action against SETVI in % (SETVI [4]; dosage 20 g/ha) | Pre-emergence action against MATIN in % (MATIN [5]; dosage 80 g/ha) | Post-emergence action against PHBPU in % (PHBPU [7]; dosage 20 g/ha) | Post-emergence action at 20 g/ha against AMARE in % (AMARE [11]) | Post-emergence action against ECHCG in % (ECHCG [13]; dosage 20 g/ha) | Post-emergence action against STEME in % (STEME [14]; dosage 5 g/ha) | Post-emergence action against ABUTH in % (ABUTH [15]; dosage 5 g/ha) | Post-emergence action against ABUTH in % (ABUTH [15]; dosage 20 g/ha) | Post-emergence action against DIGSA in % (DIGSA [20]; 5 g/ha) | Post-emergence action against DIGSA (DIGSA [20]; 20 g/ha)
80%: Post-emergence action against VERPE in % (VERPE) | Pre-emergence action against MATIN in % (MATIN [5]; dosage 20 g/ha) | Post-emergence action against PHBPU in % (PHBPU [7]; dosage 5 g/ha) | Post-emergence action against HORMU in % (HORMU [23]) | Pre-emergence action against ECHCG in % (ECHCG [10]; 20 g/ha) | Post-emergence action against ECHCG in % (ECHCG [13]; dosage 5 g/ha) | Post-emergence action against ALOMY in % (ALOMY [18]) | Pre-emergence action against PHBPU in % (PHBPU [24]) | Pre-emergence action against AVEFA in % (AVEFA [19]) | Post-emergence action against VIOTR in % (VIOTR [21]; 20 g/ha)
100%: Pre-emergence action against SETVI in % (SETVI [1]; dosage 80 g/ha) | Pre-emergence action against STEME in % (STEME [3]; dosage 80 g/ha) | Pre-emergence action against ABUTH (herbicidal activity) (ABUTH [8]; [26]) | Pre-emergence action against ABUTH (herbicidal activity in percent) (ABUTH [8]; dosage 20 g/ha, scored visually after 3 weeks vs untreated controls, 100% = plants have died, 0% = like control plants) | Pre-emergence action against AMARE in % (AMARE [9]; 20 g/ha, scored visually after 3 weeks vs untreated controls, 100% = plants have died, 0% = like control plants) | Pre-emergence action against AMARE in % (AMARE [9]; [26]) | Pre-emergence action against ECHCG in % (ECHCG [10]; 80 g/ha) | Pre-emergence action against VIOTR in % (VIOTR [12]; dosage 20 g/ha) | Pre-emergence action against VIOTR in % (VIOTR [12]; dosage 80 g/ha) | Post-emergence action against STEME in % (STEME [14]; 20 g/ha) | Pre-emergence action against DIGSA in % (DIGSA [17]; dosage 20 g/ha) | Pre-emergence action against DIGSA in % (DIGSA [17]; dosage 80 g/ha)
